According to BindingDB's records for doi:10.1021/jm00076a014 (Zeneca Pharmaceuticals, 1994):

Target: prolyl 4-hydroxylase (collagen, EC 1.14.11.2)
Experiment: Inhibition of prolyl 4-hydroxylase by chromatographic determination of [14C]-succinic acid on ion-exchange minicolumna

O=C(NS(=O)(=O)c1ccccc1)c1ccc(-c2ccc(C(=O)NS(=O)(=O)c3ccccc3)cn2)nc1 [3-phenylsulfonamidocarbonyl-6-(5-phenylsulfonamidocarbonyl-2-pyridyl)pyridine]
IC50: 5040 nM

CCOc1ccc(NC(=O)c2ccc(-c3ccc(C(=O)O)cn3)nc2)cc1 [5'-(4-Ethoxy-phenylcarbamoyl)-[2,2']bipyridinyl-5-carboxylic acid]
IC50: 320 nM
